Entries after “also recorded” stand apart in the source; their conditions may differ. Where two headings read alike, the source gives them in different places. Where a SMILES comes first, the peptide text is derived from it. [ ]: non-standard residue; d: D form. pGlu = O=C1CC[C@@H](C(=O)O)N1
How the values were obtained:
[1] = tested on: diet-induced obese mice (DIO); assay: Osmotic pump study 3: IP GTT, OGTT and ITT in diet-induced obese mice; format: in vivo, mouse; conditions: vs vehicle
Protocol: (§1) Three studies were performed to assess the in vivo efficacy of the ChgA 435−462a and Gast p59−79 (see Figure legends for specifics of each study). Peptides were administered by osmotic pumps implanted subcutaneously under isoflurane anaesthesia. Food intake was assessed using BioDaq (Research Diets) automated food intake cages. Intraperitoneal (IP) glucose tolerance tests (GTT) were performed by administering a 2 g/kg challenge of glucose and measuring blood glucose levels from the tail vein whereas oral GTT (OGTT) were performed using 1 g/kg glucose challenge. Insulin tolerance tests (ITT) were performed by administering a 0.75 U/kg dose of insulin IP to the mice and assessing blood glucose levels at 15, 30, 45, 60, 90 and 120 min post-insulin challenge.
(§2) Fig. 7 In vivo characterisation of novel peptides. (A-C) PK data of ChgA 435-462a, Gast p59-79, Sst 25-36. (D-G) Data from 1st osmotic pump study where n = 5/group. […] Body weights (E) and food intake (D) were measured throughout the study. Week 0 and day -7 represent baseline data prior to treatment onset. Glucose tolerance was assessed every 7 days after surgery via an IP GTT using a 2 g/kg glucose challenge. Results from IP GTT on day 28 shown in (F, G). Statistical analysis performed using Kruskal-Wallis test with post-hoc Dunn tests. (H, I) Results from osmotic pump study 2 where n = 8/group. Mice singly housed and infused with either Gast p59-79 or vehicle for 7 days. 2 g/kg IP GTT performed on day 7 and results shown in H and I. Statistical analysis performed using T test. (J-P) Results from osmotic pump study 3 where n = 7/group. Mice singly housed and infused with either Gast p59-79 or vehicle for 7 days. 2 g/kg IP GTT performed on day 7 (J, K) and 1 g/kg OGTT performed on day 14 (L, M). 0.75 U/kg ITT performed on day 21 (N, O). Body weights vs AUC during ITT on day 21 (P). Error bars represent SD. *P < 0.05, **p < 0.01, ***p < 0.005.

[2] = tested on: lean mice; assay: 1st osmotic pump study: 28-day infusion, body weight, food intake, weekly IP GTT; format: in vivo, mouse; conditions: n = 5/group
Protocol: as §1
as §2, with “Results from IP GTT on day 28 shown in (F, G).” left out, “(H, I) Results from osmotic pump study 2 where n = 8/group.” left out, “2 g/kg IP GTT performed on day 7 and results shown in H and I. Statistical analysis performed using T test. (J-P) Results from osmotic pump study 3 where n = 7/group.” left out

[3] = tested on: mice; assay: Osmotic pump study 2: 7-day infusion, IP GTT; format: in vivo, mouse; conditions: osmotic pump 7 days, 2 g/kg IP GTT on day 7, n = 8/group, vs vehicle, T test
Protocol: as §1
Fig. 7 In vivo characterisation of novel peptides. (A-C) PK data of ChgA 435-462a, Gast p59-79, Sst 25-36. (D-G) Data from 1st osmotic pump study where n = 5/group. […] Body weights (E) and food intake (D) were measured throughout the study. Week 0 and day -7 represent baseline data prior to treatment onset. Glucose tolerance was assessed every 7 days after surgery via an IP GTT using a 2 g/kg glucose challenge. Results from IP GTT on day 28 shown in (F, G). Statistical analysis performed using Kruskal-Wallis test with post-hoc Dunn tests. (H, I) Results from osmotic pump study 2 where n = 8/group. […]

[4] = Pharmacokinetics studies in mice (i.v. and s.c. bolus, plasma LC–MS/MS); format: in vivo; conditions: mouse; for AUC: tail vein blood over 90 min
Protocol: Male and female mice aged between 12–18 weeks old were used for these studies. Gast p59−79, ChgA 435−462a and Sst 25−36 were administered intravenously (i.v.) at 1 mg/kg and subcutaneously (s.c.) at various doses (see Fig. 7A, B and C for details on specific doses for each peptide). Blood samples were collected using EDTA coated microvette tubes (Starsedt, Leicester, UK) from the tail vein at various time points over 90 min. Blood was centrifuged (2000 g, 10 min, 4 °C) and the plasma separated. A 0.1 M sodium citrate (Sigma-Aldrich) buffer (adjusted to pH 3 with citric acid (Sigma-Aldrich)) was added to the plasma at a dilution of 1 in 10 to prevent degradation of Gast p59−79 and Sst 25−36. Plasma was stored -70 °C till extraction.
On the day of analysis, plasma samples were thawed, spiked with a stable isotope labelled version of Gast p59−79, ChgA 435−462a or Sst 25−36, and crashed with 200 μL 80 % ACN. After centrifuging, supernatants were removed and dried under gaseous nitrogen at 40 °C using a SPE Dry evaporator system (Biotage, Upsalla, Sweden). SPE was performed as described previously.
A Xevo TQ-XS triple quadrupole mass spectrometer coupled to H-class Aquity UPLC system enabled high throughput and targeted sample analysis. The column used was a Waters HSS T3 2.1 × 50 mm column at 60 °C and flowing at 350 μL/min. LC–MS/MS analysis was performed using positive ESI with a spray voltage of 3 kV, desolvation temperature 600°C, gas flow rate 1000 L/h and cone voltage of 40 V. Solvent A was 0.1 % FA in water (v/v) and Solvent B was 0.1 % FA in ACN (v/v). Each sample (40 μL per sample) was injected onto the column for 30 s with starting conditions set at 90 % A and 10 % B before the % B was increased to 50 % over the course of 3.5 min. The column was flushed with 90 % B for 1.5 min before initial conditions were restored. Total run time per sample was 5.5 min. Table 1 details the specifications used to quantify Gast p59−79, ChgA 435−462a, Sst 25−36 and their stable isotope labelled versions on a Xevo TQ-XS mass spectrometer.
Raw data files obtained on the Xevo TQ-XS triple quadrupole mass spectrometer were analysed using TargetLynx XS v4.2 software (Waters). Peptides were quantified by integrating the corresponding peaks and normalised to an internal standard if available. For pharmacokinetics studies, the concentration of peptide was estimated by comparing against a calibration line. SAAM II v2.2.1 (The Epsilon Group) with a Rosenbrock integrator and no maximum number of iterations was used to create a model for Gast p59−79 distribution and elimination upon single dose administration to mice.

AUC ([4]; both sexes, C57BL/6 N J, iv, 1 mg/kg, plasma LC–MS/MS): 503 ng·h/mL | Clearance ([4]; both sexes, C57BL/6 N J, plasma, iv, i.v., 1 mg/kg, read-out: Clearance (converted)): 0.332 | AUC ([4]; both sexes, C57BL/6 N J, sc, 10 mg/kg, plasma LC–MS/MS): 558 ng·h/mL | half-life ([4]; both sexes, C57BL/6 N J, sc, administered subcutaneously, plasma LC–MS/MS): 18.1 min | mass delivery rate required to obtain steady state concentration of 1 nM ([4]; estimated from PK data (SAAM II model), osmotic pump infusion): 0.77 mg/kg/day | Clearance ([4]; s.c., 10 mg/kg): 0.298 mL/min/kg | Bioavailability (%) ([4]; s.c., 10 mg/kg, plasma LC–MS/MS): 110% | bioavailability when administered subcutaneously (in words) ([4]; s.c., text summary of table S1): good bioavailability
Structure (SMILES): CC[C@H](C)[C@H](NC(=O)[C@H](Cc1ccccc1)NC(=O)[C@H](Cc1c[nH]cn1)NC(=O)[C@H](CCC(N)=O)NC(=O)[C@@H]1CCCN1C(=O)CNC(=O)[C@H](CCC(N)=O)NC(=O)[C@@H]1CCCN1C(=O)CNC(=O)[C@H](CC(C)C)NC(=O)[C@@H]1CCC(=O)N1)C(=O)N[C@@H](C)C(=O)N[C@@H](CC(=O)O)C(=O)N[C@@H](CC(C)C)C(=O)N[C@@H](CO)C(=O)N[C@@H](CCCCN)C(=O)N[C@@H](CCCCN)C(=O)N[C@@H](CCC(N)=O)C(=O)N[C@@H](CCCNC(=N)N)C(=O)N1CCC[C@H]1C(=O)N[C@@H](CCCNC(=N)N)C(=O)O [Gast p59−79] ([pGlu]LGPQGPQHFIADLSKKQRPR-OH; C-terminus assumed)
AUC during ITT ([1]; 0.75 U/kg ITT day 21, n = 7/group, significant effect of body weight on AUC (p = 0.009), two-way ANOVA): also evident in the AUCs (p = 0.011) | blood glucose levels in ITT ([1]; 0.75 U/kg insulin IP on day 21, n = 7/group, confounded by body weight): differed at 90 and 120 min post-insulin challenge; also recorded: appeared to slow glucose normalisation following an ITT | glucose tolerance (IP GTT and OGTT) in DIO mice ([1]; osmotic pump, 2 g/kg IP GTT day 7, 1 g/kg OGTT day 14, n = 7/group, confounded by weight loss): did not suggest that Gast p59−79 affected glucose tolerance | food intake compared with controls ([2]; 6-8 week old male mice, BioDAQ cages, osmotic pump 28 days, ChgA 435-462a 0.3, Gast p59-79 0.8, exenatide 0.03 mg/kg/day, vs PBS): No significant differences | body weight compared with controls ([2]; 6-8 week old male mice, osmotic pump 28 days, ChgA 435-462a 0.3, Gast p59-79 0.8, exenatide 0.03 mg/kg/day, vs PBS): No significant differences | IP GTT AUC analyses ([2]; lean male mice, Gast p59-79 0.8 mg/kg/day, IP GTT 2 g/kg, Kruskal-Wallis with Dunn tests): did not reach significance | glucose tolerance in IP GTT (blood glucose) ([2]; lean male mice, osmotic pump 28 days, IP GTT 2 g/kg glucose every 7 days, ChgA 435-462a 0.3, Gast p59-79 0.8, exenatide 0.03 mg/kg/day, vs PBS): Small but significant improvements in individual time point glucose levels | glucose tolerance in IP GTT, second mouse cohort [3]: modestly improves glucose tolerance

Reference: PMC8121762, “Peptidomics of enteroendocrine cells and characterisation of potential effects of a novel preprogastrin derived-peptide on glucose tolerance in lean mice” (Peptides, 2021)
